How the values were obtained:
[1] = Decomposition of hydrogen peroxide (iodometric); settings: 1:1 manganese complex with ligand 7.3 μM, initial H2O2 1.1 mM
Protocol: (§1) A tea-stained cup is filled with 100 ml of a buffer solution (10 mM carbonate, pH=10.0) containing 1.1 mM of hydrogen peroxide and 7.3 μM of 1:1 manganese complex (prepared as described in Application Example 2). Using a thermostat, the temperature of the solution is raised from 23° to 53° C. over a period of 12 minutes and maintained at the final temperature for 23 minutes. After rinsing and drying in air, the results are evaluated visually on a scale of 1 (no cleaning) to 10 (clean). The catalyst-free system is used as reference.
The procedure is as in Application Example 3 but the consumption of H2O2 is determined iodometrically.

[2] = Cleaning performance on soiled surfaces at 53° C.; settings: for Difference (rating minus rating of reference): 1:1 manganese complex 7.3 μM, 53° C., reference = catalyst-free system; for Rating: 1:1 manganese complex with ligand 7.3 μM, H2O2 1.1 mM, pH 10.0, 23° to 53° C., visual scale 1 (no cleaning) to 10 (clean)
Protocol: as §1

[3] = Bleaching action in washing agents (LINITEST, DY increase); settings: 1:1 Mn complex with ligand, H2O2 8.6 mmol/l, 30 minutes at 40° C.
Protocol: 7.5 g of white cotton fabric and 2.5 g of tea-stained cotton fabric are treated in 80 ml of washing liquor. The liquor contains a standard washing agent (ECE, 456 IEC) in a concentration of 7.5 g/l. The hydrogen peroxide concentration is 8.6 mmol/l. […] The washing process is carried out in a steel beaker in a LINITEST apparatus for 30 minutes at 40° C. For evaluating the bleaching results, the increase in the lightness DY (difference in lightness according to CIE) of the stains brought about by the treatment is determined spectrophotometrically in comparison with values obtained without the addition of catalyst.

[4] = Activity of the manganese catalysts after the bleaching cycle; settings: for Difference DDY: versus H2O2 without Mn complex
Protocol: 7.5 g of white cotton fabric and 2.5 g of tea-stained cotton fabric are treated in 80 ml of washing liquor. The liquor contains a standard washing agent (ECE, 456 IEC) in a concentration of 7.5 g/l. The hydrogen peroxide concentration is 8.6 mmol/l. The catalyst concentration (1:1 complex of manganese(II) chloride tetrahydrate with the ligand in question, prepared in methanolic solution with the addition of a small amount of lithium hydroxide) is 50 μmol/l. The washing process is carried out in a steel beaker in a LINITEST apparatus for 30 minutes at 40° C. For evaluating the bleaching results, the increase in the lightness DY (difference in lightness according to CIE) of the stains brought about by the treatment is determined spectrophotometrically in comparison with values obtained without the addition of catalyst.
The procedure as described in Application Example 2 is carried out for the 1st cycle, the cotton fabric is removed and for the 2nd cycle the procedure is carried out afresh with a new, as yet untreated cotton fabric. The DY values are determined as described in Application Example 2.

[5] = Catalytic action for the epoxidation of olefins; settings: ligand 0.05 mmol with manganese(II) acetate tetrahydrate 0.04 mmol, sodium ascorbate, H2O2; 14 hours at room temperature; by 1H-NMR
Protocol: 17 mg (0.05 mmol) of 2-[(2-hydroxy-ethyl)-[2,2′;6′,2″]terpyridin-4′-yl-amino]-ethanol (L7, Example 7), 10 mg (0.04 mmol) of manganese(II) acetate tetrahydrate and 0.32 mmol of sodium ascorbate are added to a solution of 1.09 ml (10 mmol) of ethyl acrylate in 0.5 ml of acetonitrile. The mixture is cooled in an ice bath and a 30% strength hydrogen peroxide solution (2.27 g, 20 mmol) is added dropwise thereto in the course of 20 minutes. The mixture is then left for 14 hours at room temperature, then diluted with diethyl ether and the phases are separated. The organic extract is dried over sodium sulfate, filtered and concentrated. The catalytic turnover number for the epoxide formed, ethyl oxirane-2-carboxylate, is determined by comparing the intensity of the epoxide methine proton at 3.34-3.38 ppm with the ligand signal L7 at 8.53 ppm as reference and is 35±8. Ethyl oxirane-2-carboxylate, epoxide signals ^1H-NMR (360 MHz, CDCl3): 2.68-2.89 (m, 2H, CH2); 3.34-3.38 (m, 1H, CH). Without the addition of ligand, epoxide cannot be detected.

[6] = Action as catalyst for DTI (dye transfer inhibition); settings: 1:1 manganese complex 50 μmol/l; H2O2 8.6 mmol/l; Direct Brown 172 10 mg/l; 30 minutes at 40° C.
Protocol: 7.5 g of white cotton fabric are treated in 80 ml of washing liquor. The liquor contains a standard washing agent (ECE, 456 IEC) in a concentration of 7.5 g/l. The hydrogen peroxide concentration is 8.6 mmol/l. The catalyst concentration (of manganese(II) chloride tetrahydrate with the ligand, prepared in methanolic solution with the addition of a small amount of lithium hydroxide) is 50 μmol/l, and a solution of the test dye Direct Brown 172 having 10 mg/l of the 250% formulation. The washing process is carried out in a steel beaker in a LINITEST apparatus for 30 minutes at 40° C. For testing the activity of the catalysts, the DTI activity is determined.
The reflection spectra of the samples were measured using a SPECTRAFLASH 2000 and converted into lightness values (D65/10) in accordance with a standard CIE procedure.

[7] = Catalytic bleaching of cellulose; settings: catalytically bleached; 20 μM catalyst, 8.6 mM H2O2, pH 10.0, 40° C., 30 minutes; untreated sample 63.4
Protocol: 20 g of cellulose [TPP-CT CSF129, Ref. No. P-178635 (ISO 57.4)] are steeped in a litre of water for 65 hours and then stirred in a mixer for 2 minutes to give a paste-like pulp. A bleaching bath containing 50 g of the pulp so prepared in 180 ml of water, 100 μM of Dequest 2041 (sequestering agent), 8.6 mM of hydrogen peroxide and 20 μM of catalyst from Example 35 is maintained at 40° C. for 30 minutes. At the same time 1N sodium hydroxide solution is metered-in in such a manner that a pH of 10.0 is maintained. Filtration and air-drying are then carried out. A sample that has been compressed to form a circular sheet of 10 cm diameter is then tested for the lightness Y obtained (according to CIE, reflectance spectroscopy).

[8] = Cleaning performance on soiled surfaces at 23° C.; settings: 0.16 g/l, constant 23° C., 45 minutes
Protocol: as §1
The procedure is as in Application Example 3 but the cleaning is carried out at a constant temperature of 23° C. (duration: 45 minutes).

[9] = 50 μmol/l, ECE washing agent 7.5 g/l, versus no catalyst

Row | Compound | Difference (rating minus rating of reference) [2] | Rating [2] | DY increase [3, 9] | also measured
1 | O=c1cc(-c2ccccn2)[nH]c(-c2ccccn2)c1 [Ligand L1, 1′H-[2,2′;6′,2″]Terpyridin-4′-one] | 1.9 | 5.0 (3.1) | 5.0 | Residual H2O2 ([1]; procedure of Application Example 3): 0.73 mM; Consumption ([1]; H2O2 consumption): 34%
2 | NNc1cc(-c2ccccn2)nc(-c2ccccn2)c1 [Ligand L4, [2,2′;6′,2″]Terpyridin-4′-yl-hydrazine] |  |  | 5.0 | 
3 | CN(CCO)c1cc(-c2ccccn2)nc(-c2ccccn2)c1 [Ligand L5, 2-(Methyl-[2,2′;6′,2″]terpyridin-4′-yl-amino)-ethanol] |  |  | 5.2 | 
4 | c1ccc(-c2cc(N3CCCC3)cc(-c3ccccn3)n2)nc1 [Ligand L6, 4′-Pyrrolidin-1-yl-[2,2′;6′,2″]terpyridine] | 3.9 | 7.2 (3.3) | 5.8 | 
5 | OCCN(CCO)c1cc(-c2ccccn2)nc(-c2ccccn2)c1 [Ligand L7, 2-[(2-Hydroxy-ethyl)-[2,2′;6′,2″]terpyridin-4′-yl-amino]-ethanol] | 3.6 | 6.9 (3.3) | 5.6 | Bleaching value with H2O2 and the 1:1 Mn complex (DY) ([4]; 1st cycle): DY = 23.0; Difference DDY ([4]; 1st cycle): 8.1; Bleaching value with H2O2 and the 1:1 Mn complex (DY) ([4]; 2nd cycle, same liquor, new fabric): DY = 19.0; Difference DDY ([4]; 2nd cycle): 8.0; Catalytic turnover number for the epoxide formed, ethyl oxirane-2-carboxylate [5]: 35±8; DTI activity a [6]: 90%
6 | CN1CCN(c2cc(-c3ccccn3)nc(-c3ccccn3)c2)CC1 [Ligand L8, 4′-(4-Methyl-piperazin-1-yl)-[2,2′;6′,2″]terpyridine] |  |  | 5.0 | 
7 | c1ccc(-c2cc(N3CCCCCC3)cc(-c3ccccn3)n2)nc1 [Ligand L9, 4′-Azepan-1-yl-[2,2′;6′,2″]terpyridine] |  |  | 3.8 | 
8 | c1ccc(-c2cc(N3CCCCC3)cc(-c3ccccn3)n2)nc1 [Ligand L10, 4′-Piperidin-1-yl-[2,2′;6′,2″]terpyridine] | 2.1 | 5.2 (3.1) | 4.4 | 
9 | c1ccc(-c2cc(N3CCOCC3)cc(-c3ccccn3)n2)nc1 [Ligand L11, 4′-Morpholin-4-yl-[2,2′;6′,2″]terpyridine] | 2.4 | 5.7 (3.3) | 5.5 | 
10 | CCOc1ccnc(-c2cc(=O)cc(-c3cc(OCC)ccn3)[nH]2)c1 [Ligand L17, 4,4″-Diethoxy-1′H-[2,2′;6′,2″]terpyridin-4′-one] |  |  | 5.3 | 
11 | O=c1cc(-c2cc(N3CCCC3)ccn2)[nH]c(-c2cc(N3CCCC3)ccn2)c1 [Ligand L18, 4,4″-Di-pyrrolidin-1-yl-1′H-[2,2′;6′,2″]terpyridin-4′-one] |  |  | 3.0 | 
12 | CN(CCO)c1ccnc(-c2cc(=O)cc(-c3cc(N(C)CCO)ccn3)[nH]2)c1 [Ligand L19, 4,4″-Bis[(2-hydroxy-ethyl)-methyl-amino]-1′H-[2,2′;6′,2″]terpyridin-4′-one] |  |  |  | DY increase ([3]; half concentration used): 5.3^1)
13 | CN(CCO)c1ccnc(-c2cc(N(C)CCO)cc(-c3cc(N(C)CCO)ccn3)n2)c1 [Ligand L25, 2-({4′,4″-Bis[(2-hydroxy-ethyl)methyl-amino]-[2,2′;6′,2″]terpyridin-4-yl}-methylamino)-ethanol] |  |  | 6.2 | 
14 | CCOc1ccnc(-c2cc(N(CCO)CCO)cc(-c3cc(OCC)ccn3)n2)c1 [Ligand L28, 2-[(4,4″-Diethoxy-[2,2′;6′,2″]terpyridin-4′-yl)-(2-hydroxy-ethyl)-amino]-ethanol] | 2.2 | 5.2 (3.0) | 4.3 | 
15 | COc1ccccc1-c1cccc(-c2cccc(-c3cccc(-c4ccccc4OC)n3)n2)n1 [Ligand L29, 6,6″-Bis(2-methoxyphenyl)-2,2′:6′:2″-terpyridine] |  |  |  | Lightness Y [7]: 66.9
16 | CC(=O)N(CCN(C(C)=O)C(C)=O)C(C)=O [N,N′-tetraacetylethylenediamine (TAED), N,N,N′,N′-tetraacetylethylenediamine] |  |  |  | Difference (rating minus rating of reference) [8]: 2.9; Rating ([8]; scale 1 to 10): 6.8 (3.9)
